Among the test systems are HL-60(TB) leukemia; UACC-257 melanoma; SK-OV-3 ovarian; SNB-75 CNS; SR leukemia; MALME-3M melanoma; MDA-MB-435; IGROV1 ovarian; MDA-N; NCI-H522 lung; SK-MEL-28 melanoma; ACHN renal; A498 renal; HT29 colon; OVCAR-8 ovarian; HOP-92 NSCLC; TK-10 renal; UACC-62 melanoma; OVCAR-4 ovarian.
Assay in all cases: NCI anticancer screen, dose series, 48 h

Drawing on PubChem BioAssay (NCI), this text covers TGI for seven molecules.

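All cell lines were grown in 96-well plates and treated with compound for 48 hours. The concentration for full growth arrest is given as TGI.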

In the case of `CS(=O)(=O)OC1CCN(C2(c3cccc(O)c3)CCCCC2)CC1`, the TGI is 38.2 µM in the experiment on HL-60(TB) leukemia; over 100 µM with UACC-257 melanoma; over 100 µM in the experiment with SK-OV-3 ovarian; over 100 µM in the experiment with SNB-75 CNS; 49.4 µM with SR leukemia; over 100 µM with MALME-3M melanoma. Further, the TGI with MDA-MB-435, with IGROV1 ovarian, in the experiment on MDA-N, in the experiment on NCI-H522 lung, with SK-MEL-28 melanoma and in the experiment on ACHN renal was over 100 µM each time. The TGI in the experiment with A498 renal, with HT29 colon, in the experiment on OVCAR-8 ovarian, in the experiment on HOP-92 NSCLC, in the experiment with TK-10 renal and in the experiment on UACC-62 melanoma was over 100 µM throughout. Besides, the TGI with OVCAR-4 ovarian was over 100 µM.
On to `CC(=N\N=C\c1ccccn1)/C(C)=N/N=C/c1ccccn1`, for which the TGI with HL-60(TB) leukemia, in the experiment on UACC-257 melanoma, in the experiment with SK-OV-3 ovarian, in the experiment with SNB-75 CNS, in the experiment on SR leukemia and in the experiment on MALME-3M melanoma was over 100 µM each time. For the same molecule, the TGI in the experiment on MDA-MB-435, in the experiment with IGROV1 ovarian, with MDA-N, with NCI-H522 lung, in the experiment on SK-MEL-28 melanoma and in the experiment with ACHN renal was over 100 µM throughout. The TGI with A498 renal, with HT29 colon, in the experiment on OVCAR-8 ovarian, in the experiment with HOP-92 NSCLC, in the experiment with TK-10 renal and in the experiment on OVCAR-4 ovarian was over 100 µM throughout.
Consider `Cc1cc2nc(NS(=O)(=O)c3cc(C)c(Cl)cc3S)[nH]c2cc1C`, for which the TGI with HL-60(TB) leukemia, in the experiment on UACC-257 melanoma, in the experiment on SK-OV-3 ovarian, with SNB-75 CNS, in the experiment with SR leukemia and in the experiment with MALME-3M melanoma was over 100 µM each time. In addition, the TGI in the experiment with MDA-MB-435, in the experiment on IGROV1 ovarian, in the experiment on MDA-N, in the experiment with NCI-H522 lung, in the experiment with SK-MEL-28 melanoma and with ACHN renal was over 100 µM throughout. Also, the TGI in the experiment on A498 renal, in the experiment on HT29 colon, in the experiment with OVCAR-8 ovarian, in the experiment on HOP-92 NSCLC, in the experiment with TK-10 renal and in the experiment with UACC-62 melanoma was over 100 µM in each case. Also, the TGI with OVCAR-4 ovarian was over 100 µM.
With `O=C(O)C1(CC(CCCN2CCCCC2)c2ccccc2)CCCC1` (stereo not drawn), the TGI in the experiment with HL-60(TB) leukemia, in the experiment with SK-OV-3 ovarian, with SNB-75 CNS, with SR leukemia, in the experiment with MALME-3M melanoma and in the experiment on MDA-MB-435 was over 100 µM in each case. In addition, the TGI with IGROV1 ovarian, in the experiment with MDA-N, in the experiment with NCI-H522 lung, in the experiment with SK-MEL-28 melanoma, in the experiment on ACHN renal and in the experiment with A498 renal was over 100 µM throughout. In addition, the TGI in the experiment on HT29 colon, in the experiment on OVCAR-8 ovarian, in the experiment with HOP-92 NSCLC, in the experiment with TK-10 renal, in the experiment with UACC-62 melanoma and in the experiment with OVCAR-4 ovarian was over 100 µM in each case.
Take `COc1ccc(-c2cc(-c3ccc(Nc4ccnc5cc(C(F)(F)F)ccc45)cc3)[nH]c(=O)c2C#N)cc1`: the TGI was over 100 µM with HL-60(TB) leukemia; over 100 µM in the experiment with UACC-257 melanoma; over 47.4 µM with SK-OV-3 ovarian; 62.2 µM in the experiment with SNB-75 CNS; over 100 µM in the experiment on SR leukemia; over 100 µM in the experiment on MALME-3M melanoma. Further, the TGI in the experiment with MDA-MB-435 was over 100 µM; with IGROV1 ovarian it was over 100 µM; in the experiment on MDA-N, 98.5 µM; in the experiment with NCI-H522 lung, over 100 µM; with SK-MEL-28 melanoma, over 100 µM; in the experiment on ACHN renal, over 100 µM. Further, the TGI in the experiment on A498 renal is over 55.1 µM; with HT29 colon, over 80.4 µM; with OVCAR-8 ovarian, over 100 µM; with HOP-92 NSCLC it was over 100 µM; in the experiment with TK-10 renal it was over 68.2 µM; in the experiment on UACC-62 melanoma it was over 100 µM. In the experiment on OVCAR-4 ovarian, this molecule yielded a TGI of over 100 µM.
For the molecule `CCOC(=O)C1CCCC1S(=O)(=O)c1ccc(C)cc1` (stereo not drawn), the TGI in the experiment on HL-60(TB) leukemia, with SK-OV-3 ovarian, in the experiment with SNB-75 CNS, in the experiment with SR leukemia, in the experiment on MALME-3M melanoma and in the experiment with MDA-MB-435 was over 100 µM each time. In addition, the TGI with IGROV1 ovarian, in the experiment on MDA-N, with NCI-H522 lung, with SK-MEL-28 melanoma, with ACHN renal and in the experiment with A498 renal was over 100 µM throughout. Besides, the TGI in the experiment on HT29 colon, with OVCAR-8 ovarian, in the experiment with HOP-92 NSCLC, in the experiment with TK-10 renal, in the experiment with UACC-62 melanoma and in the experiment on OVCAR-4 ovarian was over 100 µM in each case.
Consider `O=C1CSC(c2c(O)ccc3ccccc23)N1n1c(=S)[nH]nc(/C=C/c2c(O)ccc3ccccc23)c1=O` (stereo not drawn), for which the TGI in the experiment with HL-60(TB) leukemia worked out at 0.874 µM; in the experiment on UACC-257 melanoma it was 14.3 µM; in the experiment with SNB-75 CNS, 11.4 µM; in the experiment with SR leukemia it was 10.9 µM; in the experiment on MALME-3M melanoma, 16.8 µM; in the experiment with MDA-MB-435, 14.9 µM. Also, the TGI is 26.7 µM with IGROV1 ovarian; over 100 µM with MDA-N; 21 µM in the experiment with NCI-H522 lung; 11.2 µM in the experiment on ACHN renal; 18.4 µM in the experiment with A498 renal; 36.6 µM in the experiment with HT29 colon. For the same molecule, the TGI in the experiment with OVCAR-8 ovarian was 21.4 µM; with HOP-92 NSCLC, 65.3 µM; in the experiment with TK-10 renal it was 28.2 µM; in the experiment on UACC-62 melanoma, 10.1 µM; with OVCAR-4 ovarian, 40.3 µM.
